Test results from US20130172346A1, “USE OF KYNURENIC ACID AMIDE DERIVATIVES FOR THE TREATMENT OF HUNTINGTON'S DISEASE” (priority 2010, published 2013).
Entries after “also recorded” stand apart in the source; their conditions may differ.

How the values were obtained:
[1] = test system: organic anion transporters; details: mediated by organic anion transporters; cited from earlier work
[2] = cited from earlier work
[3] = test system: neurons of the striatum of N171-82Q transgenic mice; assay: Immunohistochemistry with cell volume estimation of striatal neurons; assay type: in vivo, mouse; details: 100 mg/kg i.p.
Source text: (§1) The transgenic N171-82Q mice were originally obtained from Jackson Laboratories (Bar Harbor, Me., United States), later we have propagated them in our laboratories by using B6C3F1 background strains. The progeny were genotyped by PCR technique from tail-DNA. The animals were kept in transgenic cages under standard laboratory conditions (up to 5 animals/cage), and had free access to water and food. Male and female transgenic and wild type animals respectively, were equally allotted to the individual test groups. The transgenic animals were injected intraperitoneally (5 ml/kg of body weight) every day at the same time with 2-(2-N,N-dimethylaminoethylamino-1-carbonyl)-1H-quinolin-4-one hydrochloride (at a dose of 100 mg/kg of body weight, dissolved in distilled water, pH was adjusted to 6.5 with 1N NaOH). The control transgenic and wild animals, respectively obtained a salt solution comprising 0.1 M of phosphate buffer (PBS) (5 ml/kg of body weight). The animals were inoculated in the first 5 days of the week starting from the age of 7 weeks.
(§2) The body weight of the animals was measured once a week, always at the same day of the week and at the same time of the day, starting from the age of 7 weeks. […]

N171-82Q transgenic mice [4] = assay: Body weight measurements; assay type: in vivo, mouse; details: 100 mg/kg i.p., weekly measurement from age of 7 weeks; p=0.00022
Source text: as §1, §2

N171-82Q transgenic mice [5] = assay: Survival test in N171-82Q transgenic mouse model of Huntington's disease; assay type: in vivo; details: p=0.016
Source text: as §1
The transgenic animals were inoculated as disclosed above with 2-(2-N,N-dimethylamino-ethylamino-1-carbonyl)-1H-quinolin-4-one hydrochloride (n=10), and the transgenic animals serving as a control, were inoculated with 0.1 M PBS (n=10) until the animals perished. As negative control wild type animals, treated with 0.1M PBS were used (n=10).
(§3) The statistical analysis of our data was performed by using Statistica software (StatSoft Inc., (2008) STATISTICA version 8.0.; www.statsoft.com). The analysis of the survival data was carried out by Kaplan-Meyer survival curves and Mantel-Cox log rank test. The normality of the data of the open-field test, the body weight measurement and the striatal cell volume measurement was first examined by Shapiro-Wilk W test. […] The significance level was determined at p<0.05. In case of normal distribution an average±S.E.M and in case of non-normal distribution the median and the interquartile range were used in order to depict the data

N171-82Q transgenic mice [6] = assay: Open-field test for examining motor activity (covered distance); assay type: in vivo, mouse
Source text: as §1
A test method almost identical with the method disclosed for the survival test was used with the exception of the number of animals (n=9, n=8, n=8 corresponding to the above group assignment). The spontaneous motor activity of the mice was tested once a week 2 hours after the given daily inoculation, always at the same day of the week. The animals stayed in the test unit (48×48×40 cm box open from above) for 5 minutes, the motor parameters were registered by the aid of Conducta 1.0 software (Experimetria Ltd., Budapest, Hungary). In order to characterize the motor activity, the parameter of the covered distance was selected and the data of the examined 9 weeks (between the age of 7 and 15 weeks) were evaluated as follows: an average of the first, second, third 3 weeks was calculated for each test group and the three test groups were compared according to the obtained average values.
as §3

Row | Compound | elimination from the brain and organism [1] | solubility [2] | size (volume) of the neurons in the striatum ([3]; treated transgenic animals at age of 16 weeks, interquartile range 716.2-787.4, untreated transgenic 663.4, wild type 739.0) | atrophy of the neurons in the striatum ([3]; treated vs untreated N171-82Q transgenic animals, hydrochloride, 100 mg/kg) | body weight compared to the control transgenic animals (N171-82Q transgenic mice [4]) | average survival time (N171-82Q transgenic mice [5]; N171-82Q transgenic mice, intraperitoneal, chronic, 100 mg/kg, n=10, control transgenic 111.3±6.6 days) | survival compared to the control groups (Kaplan-Meier) (N171-82Q transgenic mice [5]; N171-82Q transgenic mice, FIG. 1) | improvement of average survival time (N171-82Q transgenic mice [5]; vs control transgenic animals, intraperitoneal, chronic, 100 mg/kg) | covered distance, last 3 weeks (N171-82Q transgenic mice [6]; 100 mg/kg i.p., last 3 weeks of treatment, p=0.0094) | covered distance, second 3 weeks (N171-82Q transgenic mice [6]; 100 mg/kg i.p., second 3 weeks) | covered distance, first 3 weeks (N171-82Q transgenic mice [6]; 5 minutes, 2 hours after daily inoculation, 100 mg/kg i.p., first 3 weeks (from age of 7 weeks)) | covered distance in progress of time (N171-82Q transgenic mice [6]; N171-82Q transgenic mice, FIG. 2)
1 | O=C(O)c1cc(=O)c2ccccc2[nH]1 [KYNA, kynurenic acid] | rapidly eliminated | poor | – | – | – | – | – | – | – | – | – | –
2 | CN(C)CCNC(=O)c1cc(=O)c2ccccc2[nH]1.Cl [2-(2-N,N-dimethylaminoethylamino-1-carbonyl)-1H-quinolin-4-one hydrochloride] | – | – | 744.5 μm^3 | successfully prevented the atrophy; also recorded: prevented the development of atrophy | significantly increased | 145.5 ± 12.0 days | significantly increased | 30.7% | significant improvement | positive changes | has not improved | significant improvement
